{
  "source": "patent US8618075B2",
  "about": "“Certain compounds, compositions and methods” (Eisai Inc., priority 2007, dated 2013)",
  "key": {"[1]": {"assay": "Stability in acid solution by 1H NMR spectroscopy", "assay_type": "physicochemical", "settings": "D2O + one drop deuterated TFA, 27° C.", "method": "Tetrahydrouridine (THU, 5 mg) is dissolved in D2O (0.75 mL). To this same sample is added one drop of deuterated TFA followed by an immediate ^1HNMR spectrum (FIG. 10). Even at this earliest time point, the peak at 5.4 ppm (˜10% conversion by integration) is indicative of the ring expansion to the TH-pyranose. After 4 hours, the TH-pyranose is more prevalent indicating about 60% conversion. At 72 hours, the conversion is almost entirely complete (>80%).\nTo this same sample is added one drop of deuterated TFA followed by an immediate ^1HNMR spectrum (FIG. 12). After the first time point, the only notable change is the epimerization of the aminal which is noted by the extra peaks at 5.92 and 5.93. After 4 hours and 72 hours (FIG. 13), there are no other notable changes in the spectra (D2O, 300 MHz, 27° C.)."}, "[2]": {"test_system": "L1210 mouse lymphoma model", "assay": "Decitabine induced survival in the L1210 survival model", "assay_type": "in vivo", "settings": "for Survival compared to vehicle control and CDA inhibitor alone: p<0.05; for Mean Liver wts. (g) ± SD / Mean Spleen wts. (g) ± SD: on autopsy; for % ILS (Increased Life Span): vs vehicle group", "method": "30 CD2F1 6-7 weeks old female mice are randomly separated into 6 groups:\nL1210 Intravenous (Lv.) Injection: Prior to experiment, L1210 cells are passed at least 3 times in CD2F1 female mice. The mice are injected intraperitoneally (i.p.) with L1210 ascites one prior week to sacrifice using CO2. Each mouse is placed on its back, its belly surface is cleaned with alcohol wipes and a small incision is made into its peritoneal cavity. 2 ml of ice cold 2.1% bovine serum albumin (BSA) in saline is injected into the cavity. Fluid is withdrawn from the cavity, transferred with an 18G 3 cc syringe into a clean sterile tube, and kept on ice. The fluid is diluted 1:10 in 2.1% BSA in saline and one drop of zap-o-globin is added to 2 ml of diluted ascites. Diluted ascites (dilute 1:10 again) are counted on a hematocytomer and the number of cells/ml is calculated. A stock of ascites in BSA solution is diluted to 1×10^4 cells/0.1 ml. Mice are injected with 0.1 ml of cell solution with a 27G needle.\nDecitabine is prepared at a 1 mg/ml stock in PBS and diluted appropriately to achieve a 0.01 and 0.02 mg/ml dosing solution.\nDosing Scheme: Decitabine is prepared fresh twice a day. All dose solutions are stored on ice while dosing. Mice are dosed i.p. or orally (p.o.) twice a day (8 hours apart) for 4 consecutive days.\nSurvival and Autopsy: Mice are observed for survival and weighed daily (Monday to Friday) for the duration of the study (30 days). Dead mice are autopsied and observed for the presence of tumors in organs. Tumor deaths are determined by liver weights greater than 1.6 g and spleen weights greater than 150 mg as per Covey et al., Eur. J. Cancer Oncol. 1985."}, "[3]": {"test_system": "A2780 human ovarian cancer xenograft", "assay": "Gemcitabine-induced reduction of tumor volume in the mouse A2780 human ovarian cancer xenograft model", "assay_type": "in vivo", "method": "Female NCr nu/nu 5-6 week old mice are implanted subcutaneously with 30 to 60 mg tumor fragments. On day 11 when the tumors are approximately 200 mm^3, treatment starts as described in Table 5.\nTumor volume is followed throughout the experiment. Tumor volume is measured three times weekly. Tumor burden (mg=mm^3) is calculated from caliper measurements by the formula for the volume of a prolate ellipsoid (L×W^2)/2 where L and W are the respective orthogonal length and width measurements (mm).\nThe primary endpoints used to evaluate efficacy in the A2780 model are complete and partial tumor regressions, tumor growth delay and the number of tumor free survivors at the end of the study. A complete response (CR) is defined as a decrease in tumor size to an undetectable size (<50mm^3). A partial response (PR) is defined as >50% decrease in tumor mass form starting tumor size. A tumor that achieves a CR or PR during the study but starts to grow again is still considered a CR or PR. Tumor free survival (TFS) at the end of the study would be no detectable tumor (<50 mm^3) at study termination (day 74). Tumor growth delay (TGD) is defined in this experiment as the median number of days for the treatment group compared to the control group to reach 750 mm^3."}, "[4]": {"settings": "CDA inhibitor plus decitabine 0.1 mg/kg"}, "[5]": {"settings": "30 mg/kg Gemcitabine PO + Compound 1 10 mg/kg PO q3dx4"}, "[6]": {"settings": "Group 2: Compound 1 10 mg/kg p.o. alone"}, "[7]": {"settings": "Group 2: Compound 1 10 mg/kg p.o. x2 for 4 days alone"}, "[8]": {"settings": "Group 4: Compound 1 1 mg/kg + 0.1 mg/kg decitabine p.o."}, "[9]": {"settings": "Group 5: Compound 1 10 mg/kg + 0.1 mg/kg decitabine p.o."}, "[10]": {"settings": "Group 3: 0.1 mg/kg decitabine p.o. alone"}, "[11]": {"settings": "10 mg/kg Gemcitabine PO q3dx4 alone"}, "[12]": {"settings": "30 mg/kg Gemcitabine PO q3dx4 alone"}},
  "data": [
    {"smiles": "O=C1N[C@H](O)CCN1C1O[C@H](CO)[C@@H](O)C1(F)F", "note": "(single isomer, unassigned) [Compound 1a, 2′2′-DiFluoro-TetraHydroUridine]", "values": [
      {"measurement": "Pyranose formation in acid", "setting": "[1]; up to 72 hours, only epimerization of the aminal noted", "value": "no pyranose formation occurs"},
      {"measurement": "Extending survival compared to the lower doses", "setting": "[2]; 10 mg/kg Compound 1a in combination with DAC", "value": "more effective"},
      {"measurement": "Survival compared to vehicle control and CDA inhibitor alone", "setting": "[2]; [4]", "value": "live longer"}
    ]},
    {"smiles": "O=C1NC(O)CCN1C1O[C@H](CO)[C@@H](O)C1(F)F", "note": "(some centres unmarked) [Compound 1, 2′2′-DiFluoro-TetraHydroUridine]", "values": [
      {"measurement": "TGD (tumor growth delay)", "setting": "[3]; 10 mg/kg Compound 1 PO q3dx4 alone, median days to reach 750 mm^3 vs control", "value": 0.4, "unit": "days"},
      {"measurement": "Tumors displaying CR", "setting": "[3]; 10 mg/kg Gemcitabine PO + Compound 1 10 mg/kg PO q3dx4", "value": 75, "unit": "%"},
      {"measurement": "TGD (tumor growth delay)", "setting": "[3]; 10 mg/kg Gemcitabine PO + Compound 1 10 mg/kg PO q3dx4, p<0.05 vs 10 mg/kg Gem alone", "value": 19.2, "unit": "days"},
      {"measurement": "CR", "setting": "[3]; [5]", "value": 100, "unit": "%"},
      {"measurement": "Incidence of TFS at day 74", "setting": "[3]; [5]", "value": 50, "unit": "%"},
      {"measurement": "TGD (tumor growth delay)", "setting": "[3]; 30 mg/kg Gemcitabine PO + Compound 1 10 mg/kg PO q3dx4, p<0.05 vs 30 mg/kg Gem alone", "value": ">57", "unit": "days"},
      {"measurement": "Mean Liver wts. (g) ± SD", "setting": "[2]; [6]", "value": "1.99 ± 0.22", "unit": "g"},
      {"measurement": "Mean Spleen wts. (g) ± SD", "setting": "[2]; [6]", "value": "0.39 ± 0.07", "unit": "g"},
      {"measurement": "Mean Survival (days) ± SD", "setting": "[2]; [7]", "value": "7.40 ± 0.55", "unit": "days"},
      {"measurement": "% ILS (Increased Life Span)", "setting": "[2]; [7]", "value": 0.00, "unit": "%"},
      {"measurement": "Mean Survival (days) ± SD", "setting": "[2]; Group 4: Compound 1 1 mg/kg + 0.1 mg/kg decitabine p.o. x2 for 4 days", "value": "12.8 ± 0.45", "unit": "days"},
      {"measurement": "Mean Liver wts. (g) ± SD", "setting": "[2]; [8]", "value": "2.03 ± 0.08", "unit": "g"},
      {"measurement": "Mean Spleen wts. (g) ± SD", "setting": "[2]; [8]", "value": "0.29 ± 0.03", "unit": "g"},
      {"measurement": "% ILS (Increased Life Span)", "setting": "[2]; [8]", "value": 72.97, "unit": "%"},
      {"measurement": "Mean Survival (days) ± SD", "setting": "[2]; Group 5: Compound 1 10 mg/kg + 0.1 mg/kg decitabine p.o. x2 for 4 days", "value": "14.2 ± 0.45", "unit": "days"},
      {"measurement": "Mean Liver wts. (g) ± SD", "setting": "[2]; [9]", "value": "2.02 ± 0.27", "unit": "g"},
      {"measurement": "Mean Spleen wts. (g) ± SD", "setting": "[2]; [9]", "value": "0.29 ± 0.07", "unit": "g"},
      {"measurement": "% ILS (Increased Life Span)", "setting": "[2]; [9]", "value": 91.89, "unit": "%"}
    ]},
    {"smiles": "O=C1N[C@H](O)CCN1C1O[C@H](CO)[C@@H](O)[C@H]1F", "note": "(stereo partly drawn) [Compound 3a, 2′(S)-fluoro-2′deoxy-tetrahydrouridine]", "values": [
      {"measurement": "Survival compared to vehicle control and CDA inhibitor alone", "setting": "[2]; [4]", "value": "live longer"}
    ]},
    {"smiles": "Nc1ncn([C@H]2C[C@H](O)[C@@H](CO)O2)c(=O)n1", "note": "[Decitabine, 5-Aza-2′-deoxycytidine, reference compound]", "values": [
      {"measurement": "Mean Liver wts. (g) ± SD", "setting": "[2]; [10]", "value": "2.05 ± 0.17", "unit": "g"},
      {"measurement": "Mean Spleen wts. (g) ± SD", "setting": "[2]; [10]", "value": "0.33 ± 0.06", "unit": "g"},
      {"measurement": "% ILS (Increased Life Span)", "setting": "[2]; [10]", "value": 43.24, "unit": "%"},
      {"measurement": "Mean Survival (days) ± SD", "setting": "[2]; Group 3: 0.1 mg/kg decitabine p.o. x2 for 4 days alone", "value": "10.6 ± 0.56", "unit": "days"},
      {"measurement": "Survival compared to vehicle control and CDA inhibitor alone", "setting": "[2]; decitabine 0.1 mg/kg alone", "value": "live longer"},
      {"measurement": "Efficacy (survival) compared to 0.1 mg/kg decitabine i.p.", "setting": "[2]; decitabine 0.1 mg/kg p.o., not significantly different, p=0.052", "value": "less effective"}
    ]},
    {"smiles": "Nc1ccn([C@@H]2O[C@H](CO)[C@@H](O)C2(F)F)c(=O)n1", "note": "[Gemcitabine, reference compound]", "values": [
      {"measurement": "Complete responses (CR)", "setting": "[3]; [11]", "value": "no CRs"},
      {"measurement": "Partial responses (PR)", "setting": "[3]; [11]", "value": "no"},
      {"measurement": "Tumor free survivors (TFS) at day 74", "setting": "[3]; [11]", "value": "no"},
      {"measurement": "TGD (tumor growth delay)", "setting": "[3]; 10 mg/kg Gemcitabine PO q3dx4 alone, not statistically significant", "value": 6.1, "unit": "days"},
      {"measurement": "TGD (tumor growth delay)", "setting": "[3]; 30 mg/kg Gemcitabine PO q3dx4 (MTD) alone, p<0.05 vs untreated control", "value": 22, "unit": "days"},
      {"measurement": "CRs", "setting": "[3]; [12]", "value": 63, "unit": "%"},
      {"measurement": "Tumor free survivors (TFS) at day 74", "setting": "[3]; [12]", "value": "no TFS"}
    ]},
    {"smiles": "O=C1NC(O)CCN1[C@@H]1O[C@H](CO)[C@@H](O)[C@H]1O", "note": "(some centres unmarked) [THU, Tetrahydrouridine]", "values": [
      {"measurement": "Conversion to TH-pyranose", "setting": "[1]; after 4 hours", "value": "about 60%"},
      {"measurement": "Conversion to TH-pyranose", "setting": "[1]; at 72 hours", "value": "> 80", "unit": "%"},
      {"measurement": "Conversion to TH-pyranose (by integration)", "setting": "[1]; immediate spectrum", "value": "~10", "unit": "%"}
    ]}
  ]
}
